Here are results for 1 compound from US9561233B2, “Use of ibogaine for the treatment of pain” (DemeRX, Inc., priority 2014, dated 2017).

One series deals with pain in patients. In words: human clinical studies of ibogaine dosing, alleviation of pain. The settings on record: lower dosing of ibogaine (lower end of prior-art range 0.01 to 1000 mg/kg body weight). It counts as in vivo. On the procedure: While ibogaine has been disclosed for treatment of substance addiction, its use in humans is complicated by the fact that the ranges in the prior art are exceptionally broad (0.01 to 1000 mg/kg body weight).

In the next series the test system is QT interval. The series is described as follows: QT interval of patients treated with ibogaine. The settings on record: higher dosing unacceptable. The format is in vivo, human. An excerpt:
A prolonged QT interval is a marker of potential Torsades de Pointes, a serious arrhythmia that can result in death.
As used herein, the term “QT interval” refers to the measure of the time between the start of the Q wave and the end of the T wave in the electrical cycle of the heart. Prolongation of the QT interval refers to an increase in the QT interval.

As for `CCC1CC2CC3c4[nH]c5ccc(OC)cc5c4CCN(C2)C13` (centres unmarked) [ibogaine], the “impact on the alleviation of pain in patients” value in the series on pain in patients was “minimal impact”. For the same compound, the “prolongation of the treated patient's QT interval” value in the series on QT interval is “dose dependent prolongation”.
